Measurements as given in ChEMBL document CHEMBL1201862, “PubChem BioAssay data set” (2004).
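Grown in 96-well plates, cells were treated for 48 hours with each compound at five concentrations. Insufficient inhibition: endpoint recorded as highest concentration tested. At the GI50, growth is halved.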 Activity calls are given as the source filed them. Rule as the data show it: active = GI50 up to about 1.1 µM and inactive = higher.

Legend:
Assay in all cases: NCI anticancer screen, dose series, 48 h
SNB-19 = system: SNB-19
MDA-N = system: MDA-N
SF-268 = system: SF-268
OVCAR-8 = system: OVCAR-8
HCT-116 = system: HCT-116
BT-549 = system: BT-549
SK-OV-3 = system: SK-OV-3
NCI/ADR-RES = system: NCI/ADR-RES
SW-620 = system: SW-620
RXF 393 = system: RXF 393
NCI-H23 = system: NCI-H23
SF-295 = system: SF-295
OVCAR-5 = system: OVCAR-5
K562 = system: K562
SK-MEL-28 = system: SK-MEL-28
COLO 205 = system: COLO 205
OVCAR-4 = system: OVCAR-4
SK-MEL-2 = system: SK-MEL-2
HL-60 = system: HL-60
HCC 2998 = system: HCC 2998

| Compound | GI50 (SNB-19) | GI50 (MDA-N) | GI50 (SF-268) | GI50 (OVCAR-8) | GI50 (HCT-116) | GI50 (BT-549) | GI50 (SK-OV-3) | GI50 (NCI/ADR-RES) | GI50 (SW-620) | GI50 (RXF 393) | GI50 (NCI-H23) | GI50 (SF-295) | GI50 (OVCAR-5) | GI50 (K562) | GI50 (SK-MEL-28) | GI50 (COLO 205) | GI50 (OVCAR-4) | GI50 (SK-MEL-2) | GI50 (HL-60) | GI50 (HCC 2998) |
| --- | --- | --- | --- | --- | --- | --- | --- | --- | --- | --- | --- | --- | --- | --- | --- | --- | --- | --- | --- | --- |
| O=[N+]([O-])c1ccc(S(=O)(=O)Cc2ccccc2)c2nonc12 | 37 µM (inactive) | 19 µM (inactive) | 20 µM (inactive) | 22.1 µM (inactive) | 17.3 µM (inactive) | 18.5 µM (inactive) | > 100 µM (inactive) | 27 µM (inactive) | 22.1 µM (inactive) | 17.7 µM (inactive) | 19.1 µM (inactive) | > 100 µM (inactive) | 58.2 µM (inactive) | 26.6 µM (inactive) | 20.5 µM (inactive) | 16.4 µM (inactive) | 17.3 µM (inactive) | 19.3 µM (inactive) | 18.3 µM (inactive) | – |
| O=C(/N=N/c1cc(Cl)ccc1Cl)NNc1cc(Cl)ccc1Cl | > 10 µM (inactive) | 25.4 µM (inactive) | – | 26.8 µM (inactive) | 18.6 µM (inactive) | > 10 µM (inactive) | 30.3 µM (inactive) | 22 µM (inactive) | – | 11.1 µM (inactive) | 18.1 µM (inactive) | 22.8 µM (inactive) | 17.6 µM (inactive) | 14.6 µM (inactive) | 23.5 µM (inactive) | 21.8 µM (inactive) | – | 20 µM (inactive) | 4.41 µM (inactive) | 25.9 µM (inactive) |
| Nc1n[nH]c2nc3ccc(C(F)(F)F)cc3nc12 | 32.2 µM (inactive) | 35.3 µM (inactive) | 33.7 µM (inactive) | 19.8 µM (inactive) | 24.7 µM (inactive) | 23.1 µM (inactive) | 20.5 µM (inactive) | 33.4 µM (inactive) | 19.3 µM (inactive) | 16.4 µM (inactive) | 22.2 µM (inactive) | 24.5 µM (inactive) | 25.6 µM (inactive) | 42.7 µM (inactive) | 21.1 µM (inactive) | 16 µM (inactive) | 42.6 µM (inactive) | 23.3 µM (inactive) | – | 37.7 µM (inactive) |
| CNC(=O)Oc1ccc(-c2cn3cc(OC(=O)NC)ccc3n2)cc1 | 43.3 µM (inactive) | 32.8 µM (inactive) | 19.3 µM (inactive) | 49.9 µM (inactive) | 33.1 µM (inactive) | > 100 µM (inactive) | > 100 µM (inactive) | 79.1 µM (inactive) | 35.1 µM (inactive) | 60 µM (inactive) | 87.3 µM (inactive) | 64.6 µM (inactive) | > 100 µM (inactive) | 22.6 µM (inactive) | 92.7 µM (inactive) | 41.4 µM (inactive) | 51.1 µM (inactive) | > 100 µM (inactive) | – | 49.3 µM (inactive) |
| CCOC(=O)NC(Nc1ccc(C(=O)O)cc1)(C(F)(F)F)C(F)(F)F | > 100 µM (inactive) | > 100 µM (inactive) | > 100 µM (inactive) | > 100 µM (inactive) | > 100 µM (inactive) | > 100 µM (inactive) | > 100 µM (inactive) | > 100 µM (inactive) | > 100 µM (inactive) | 60.8 µM (inactive) | > 100 µM (inactive) | > 100 µM (inactive) | > 100 µM (inactive) | > 100 µM (inactive) | > 100 µM (inactive) | > 100 µM (inactive) | – | > 100 µM (inactive) | > 100 µM (inactive) | > 100 µM (inactive) |
| O=C1Oc2ccccc2N/C1=C/C(=O)c1ccc(Cl)cc1 | > 100 µM (inactive) | 66.1 µM (inactive) | > 100 µM (inactive) | 42.5 µM (inactive) | 62.5 µM (inactive) | > 100 µM (inactive) | > 100 µM (inactive) | 39 µM (inactive) | – | > 100 µM (inactive) | > 100 µM (inactive) | 51.4 µM (inactive) | > 100 µM (inactive) | 37.1 µM (inactive) | – | > 100 µM (inactive) | > 100 µM (inactive) | > 100 µM (inactive) | – | 63.5 µM (inactive) |
| CSc1ccc(Nc2cc(=O)[nH]c(=O)[nH]2)cc1 | > 100 µM (inactive) | > 100 µM (inactive) | > 100 µM (inactive) | 60.4 µM (inactive) | > 100 µM (inactive) | > 100 µM (inactive) | > 100 µM (inactive) | > 100 µM (inactive) | > 100 µM (inactive) | – | > 100 µM (inactive) | > 100 µM (inactive) | > 100 µM (inactive) | > 100 µM (inactive) | > 100 µM (inactive) | > 100 µM (inactive) | > 100 µM (inactive) | > 100 µM (inactive) | > 100 µM (inactive) | > 100 µM (inactive) |
| O=C1/C(=C/c2ccc(Cl)cc2)CCC/C1=C\c1ccc(O)c(CN2CCCCC2)c1 | 33 µM (inactive) | 12.9 µM (inactive) | – | 14.5 µM (inactive) | 8.57 µM (inactive) | 11.2 µM (inactive) | 24 µM (inactive) | 12.9 µM (inactive) | 18 µM (inactive) | – | 19.1 µM (inactive) | 14.2 µM (inactive) | 23.8 µM (inactive) | 9.29 µM (inactive) | 21 µM (inactive) | 20.3 µM (inactive) | 20 µM (inactive) | 42.1 µM (inactive) | 2.13 µM (inactive) | 20.2 µM (inactive) |
| CCN(CC)CCNc1ccc2nnn3c4ccc(OCCN(CC)CC)cc4c(=O)c1c23 | 48.5 µM (inactive) | 66.5 µM (inactive) | 54.1 µM (inactive) | 27.9 µM (inactive) | 30 µM (inactive) | > 100 µM (inactive) | > 100 µM (inactive) | 57.7 µM (inactive) | 38.2 µM (inactive) | 62.5 µM (inactive) | 88.5 µM (inactive) | 65.3 µM (inactive) | > 100 µM (inactive) | 38.6 µM (inactive) | > 100 µM (inactive) | 30.6 µM (inactive) | 16.3 µM (inactive) | > 100 µM (inactive) | – | > 100 µM (inactive) |
| CC(C)(C)c1cc(C(CO)OCCOCCO)cc(C(C)(C)C)c1O (centres undefined) | > 100 µM (inactive) | > 100 µM (inactive) | > 100 µM (inactive) | > 100 µM (inactive) | > 100 µM (inactive) | > 100 µM (inactive) | > 100 µM (inactive) | > 100 µM (inactive) | > 100 µM (inactive) | > 100 µM (inactive) | > 100 µM (inactive) | > 100 µM (inactive) | > 100 µM (inactive) | > 100 µM (inactive) | > 100 µM (inactive) | > 100 µM (inactive) | > 100 µM (inactive) | > 100 µM (inactive) | – | – |
| CSc1c(C#N)c2n(c3ccccc13)c1ccccc1[n+]2C | > 10 µM (inactive) | 26.2 µM (inactive) | 28.5 µM (inactive) | 24 µM (inactive) | 6.4 µM (inactive) | 19.7 µM (inactive) | – | 25.1 µM (inactive) | 23.8 µM (inactive) | – | 25.5 µM (inactive) | 34 µM (inactive) | 31.4 µM (inactive) | – | 23.9 µM (inactive) | 15 µM (inactive) | 59.3 µM (inactive) | 20.3 µM (inactive) | 20.3 µM (inactive) | 27.9 µM (inactive) |
| COc1ccc2oc(S(=O)(=O)N3CC(CCl)c4ccc(N)cc43)cc2c1 (centres undefined) | 0.0608 µM (active) | 0.0104 µM (active) | 2.01 µM (inactive) | 0.152 µM (active) | 0.0419 µM (active) | 2.31 µM (inactive) | 0.108 µM (active) | 0.0377 µM (active) | 0.0395 µM (active) | – | 0.401 µM (active) | 0.042 µM (active) | > 19.3 µM (inactive) | 0.0225 µM (active) | 54.1 µM (inactive) | 2.11 µM (inactive) | 9.77 µM (inactive) | < 0.0443 µM (active) | 0.022 µM (active) | 0.118 µM (active) |
| CCOC(=O)c1cnc(N(C)C)nc1SC(=N)N | > 100 µM (inactive) | > 100 µM (inactive) | > 100 µM (inactive) | > 100 µM (inactive) | > 100 µM (inactive) | > 100 µM (inactive) | > 100 µM (inactive) | > 100 µM (inactive) | > 100 µM (inactive) | > 100 µM (inactive) | > 100 µM (inactive) | > 100 µM (inactive) | > 100 µM (inactive) | > 100 µM (inactive) | > 100 µM (inactive) | > 100 µM (inactive) | > 100 µM (inactive) | > 100 µM (inactive) | – | – |
| NC(=O)c1c(NC=O)ncn1C1OCC(O)C(O)C1O (centres undefined) | > 100 µM (inactive) | > 100 µM (inactive) | > 100 µM (inactive) | > 100 µM (inactive) | > 100 µM (inactive) | > 100 µM (inactive) | > 100 µM (inactive) | > 100 µM (inactive) | > 100 µM (inactive) | > 100 µM (inactive) | > 100 µM (inactive) | > 100 µM (inactive) | > 100 µM (inactive) | > 100 µM (inactive) | – | > 100 µM (inactive) | > 100 µM (inactive) | > 100 µM (inactive) | > 100 µM (inactive) | – |
| CCOC(=O)C(NC(=O)Nc1ccccc1F)(OC)C(F)(F)F (centres undefined) | > 100 µM (inactive) | > 100 µM (inactive) | > 100 µM (inactive) | > 100 µM (inactive) | > 100 µM (inactive) | > 100 µM (inactive) | > 100 µM (inactive) | > 100 µM (inactive) | > 100 µM (inactive) | > 100 µM (inactive) | > 100 µM (inactive) | – | > 100 µM (inactive) | > 100 µM (inactive) | > 100 µM (inactive) | > 100 µM (inactive) | – | > 100 µM (inactive) | > 100 µM (inactive) | > 100 µM (inactive) |
